Tested on: F1G cells

SMILES: Cc1cccc2nc(CSC(=S)NCc3cccnc3)cn12 [Compound 1, (5-methylimidazo[1,2-a]pyridin-2-yl)methyl (pyridin-3-ylmethyl)carbamodithioate]
- cytotoxicity: without cytoxicity at the active doses

— publication PMC9901219 (European Journal of Medicinal Chemistry, 2023)
